Laboratory results: patent US12441703B2, “Carboxamides as modulators of sodium channels” (VERTEX PHARMACEUTICALS INCORPORATED, priority 2019, dated 2025)

molecular target: human NaV 1.8 (Homo sapiens, UniProt Q9Y5Y9); assay: E-VIPR assay for detecting and measuring NaV inhibition properties; format: cell-based; settings: E-VIPR assay conducted in the presence of human serum; HEK cells expressing truncated human NaV 1.8; read-out: IC50
Outline: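 HEK cells with truncated human NaV1.8 plus KIR2.1 BacMam, hexyl dye loaded 20 min, compound 30 min at room temperature, 11-point 3-fold series […], 0.625% DMSO, with or without human serum. E-VIPR biphasic stimulation at 10 Hz for 10 s; membrane-potential response read as normalized coumarin/oxonol ratio.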

Sequence of human NaV 1.8 (Q9Y5Y9 whole entry, looked up, the tested form may be a part): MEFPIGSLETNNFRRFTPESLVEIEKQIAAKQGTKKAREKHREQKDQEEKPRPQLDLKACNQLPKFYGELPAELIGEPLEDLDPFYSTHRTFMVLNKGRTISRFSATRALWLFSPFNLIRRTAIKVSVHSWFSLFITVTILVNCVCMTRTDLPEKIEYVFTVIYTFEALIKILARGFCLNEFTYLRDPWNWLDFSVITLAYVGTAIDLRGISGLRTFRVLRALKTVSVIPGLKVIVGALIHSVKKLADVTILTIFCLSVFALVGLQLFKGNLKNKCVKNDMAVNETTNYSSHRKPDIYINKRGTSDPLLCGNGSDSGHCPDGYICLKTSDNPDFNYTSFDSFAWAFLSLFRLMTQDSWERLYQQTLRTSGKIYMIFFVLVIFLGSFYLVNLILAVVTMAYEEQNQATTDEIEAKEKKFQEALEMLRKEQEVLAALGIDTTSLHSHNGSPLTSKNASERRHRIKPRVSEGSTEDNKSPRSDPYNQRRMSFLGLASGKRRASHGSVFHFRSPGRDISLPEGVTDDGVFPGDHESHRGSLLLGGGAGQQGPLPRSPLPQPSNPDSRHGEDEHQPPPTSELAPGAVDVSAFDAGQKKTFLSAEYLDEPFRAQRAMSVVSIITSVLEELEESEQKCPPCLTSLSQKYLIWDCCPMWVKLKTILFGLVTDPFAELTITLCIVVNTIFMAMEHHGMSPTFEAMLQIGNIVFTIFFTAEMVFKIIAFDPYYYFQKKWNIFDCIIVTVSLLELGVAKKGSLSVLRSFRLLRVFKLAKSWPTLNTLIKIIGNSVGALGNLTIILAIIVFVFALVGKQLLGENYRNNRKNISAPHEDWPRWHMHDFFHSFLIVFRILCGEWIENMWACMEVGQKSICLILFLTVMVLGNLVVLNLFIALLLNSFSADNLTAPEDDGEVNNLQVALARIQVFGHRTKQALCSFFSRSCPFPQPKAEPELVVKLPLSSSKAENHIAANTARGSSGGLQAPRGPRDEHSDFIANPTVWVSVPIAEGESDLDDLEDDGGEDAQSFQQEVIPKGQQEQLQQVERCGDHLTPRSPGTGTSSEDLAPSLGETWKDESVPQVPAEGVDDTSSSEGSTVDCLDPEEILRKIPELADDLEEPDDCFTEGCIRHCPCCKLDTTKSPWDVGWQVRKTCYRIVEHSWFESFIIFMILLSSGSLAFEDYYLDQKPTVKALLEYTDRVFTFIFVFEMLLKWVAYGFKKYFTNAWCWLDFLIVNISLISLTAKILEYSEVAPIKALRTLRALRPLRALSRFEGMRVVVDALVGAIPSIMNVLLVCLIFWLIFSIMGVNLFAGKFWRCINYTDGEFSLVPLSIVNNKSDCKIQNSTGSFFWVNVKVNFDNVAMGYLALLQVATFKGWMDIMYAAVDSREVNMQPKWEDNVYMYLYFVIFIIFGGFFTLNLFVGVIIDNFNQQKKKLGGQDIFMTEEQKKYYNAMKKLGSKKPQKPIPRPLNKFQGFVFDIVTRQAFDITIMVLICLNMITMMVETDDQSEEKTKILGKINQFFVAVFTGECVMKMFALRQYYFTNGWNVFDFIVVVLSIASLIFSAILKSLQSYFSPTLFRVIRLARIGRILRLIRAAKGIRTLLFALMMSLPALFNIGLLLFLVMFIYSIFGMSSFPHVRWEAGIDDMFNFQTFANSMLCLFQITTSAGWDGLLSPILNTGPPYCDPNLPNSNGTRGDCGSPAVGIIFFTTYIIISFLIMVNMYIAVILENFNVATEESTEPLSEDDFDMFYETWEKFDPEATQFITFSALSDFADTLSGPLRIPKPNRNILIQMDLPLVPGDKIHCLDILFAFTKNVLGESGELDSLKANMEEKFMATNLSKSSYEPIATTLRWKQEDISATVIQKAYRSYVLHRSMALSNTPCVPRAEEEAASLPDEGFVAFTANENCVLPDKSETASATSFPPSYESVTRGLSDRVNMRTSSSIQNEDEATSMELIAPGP

| IC50 | Molecule |
| --- | --- |
| 590 nM | Cc1c(C2CC2)ccc(Oc2ccc(OC(F)(F)F)cc2Cl)c1C(=O)Nc1ccc(C(N)=O)nc1 [Compound 287, 5-[[6-[2-Chloro-4-(Trifluoromethoxy)Phenoxy]-3-Cyclopropyl-2-Methyl-Benzoyl]Amino]Pyridine-2-Carboxamide] |
| 650 nM | NC(=O)c1cc(NC(=O)c2cc(C(F)(F)F)ccc2Oc2ccc(F)c3c2OCC3)ccn1 [Compound 10, 4-[[2-[(4-fluoro-2,3-dihydrobenzofuran-7-yl)oxy]-5-(trifluoromethyl)benzoyl]amino]pyridine-2-carboxamide] |
| 220 nM | Cc1c(F)ccc(Oc2ccc(C(F)(F)F)c(C)c2C(=O)Nc2ccnc(C(N)=O)c2)c1C [Compound 141, 4-[[6-(4-fluoro-2,3-dimethyl-phenoxy)-2-methyl-3-(trifluoromethyl)benzoyl]amino]pyridine-2-carboxamide] |
| 2.8 nM | COc1cc(OC(F)(F)F)ccc1Oc1cc(OC)c(Cl)c(F)c1C(=O)Nc1ccnc(C(N)=O)c1 [Compound 266, 4-[[3-chloro-2-fluoro-4-methoxy-6-[2-methoxy-4-(trifluoromethoxy)phenoxy]benzoyl]amino]pyridine-2-carboxamide] |
| > 3000 nM | COc1ccc(Cl)cc1Oc1ccc(C(F)(F)F)cc1C(=O)Nc1ccnc(C(N)=O)c1 [Compound 15, 4-[[2-(5-chloro-2-methoxy-phenoxy)-5-(trifluoromethyl)benzoyl]amino]pyridine-2-carboxamide] |
| 650 nM | Cc1cc(F)ccc1Oc1ccc(C(F)(F)F)cc1C(=O)Nc1ccnc(C(N)=O)c1 [Compound 4, 4-[[2-(4-fluoro-2-methyl-phenoxy)-5-(trifluoromethyl)benzoyl]amino]pyridine-2-carboxamide] |
| 170 nM | COc1ccc(Cl)cc1Oc1ccc(C(F)(F)F)c(F)c1C(=O)Nc1ccnc(C(N)=O)c1 [Compound 27, 4-[[6-(5-chloro-2-methoxy-phenoxy)-2-fluoro-3-(trifluoromethyl)benzoyl]amino]pyridine-2-carboxamide] |
| 330 nM | COc1cc(OC(F)(F)F)ccc1Oc1cc(C2=CCOC2)ccc1C(=O)Nc1ccnc(C(N)=O)c1 [Compound 1030] |
| > 3000 nM | NC(=O)c1cc(NC(=O)c2c(-c3ccc(OC(F)(F)F)cc3)ccc(C(F)(F)F)c2F)ccn1 [Compound 250, 4-[[2-fluoro-6-[4-(trifluoromethoxy)phenyl]-3-(trifluoromethyl)benzoyl]amino]pyridine-2-carboxamide] |
| 39 nM | [2H]C([2H])([2H])Oc1cc(OC(F)(F)F)ccc1Oc1cc(-c2ccc(C)cc2)cc(F)c1C(=O)Nc1ccnc(C(N)=O)c1 [Compound 88, 4-[[2-fluoro-4-(p-tolyl)-6-[2-(trideuteriomethoxy)-4-(trifluoromethoxy)phenoxy]benzoyl]amino]pyridine-2-carboxamide] |
| 1300 nM | [2H]C([2H])([2H])Oc1cc(OC(F)(F)F)ccc1Oc1cc(C(F)(F)F)cnc1C(=O)Nc1ccnc(C(N)=O)c1 [Compound 173, N-(2-carbamoyl-4-pyridyl)-3-[2-(trideuteriomethoxy)-4-(trifluoromethoxy)phenoxy]-5-(trifluoromethyl)pyridine-2-carboxamide] |
| > 3000 nM | NC(=O)c1cc(NC(=O)c2c(Oc3ccc(F)cc3F)cccc2C(F)(F)F)ccn1 [Compound 77, 4-[[2-(2,4-difluorophenoxy)-6-(trifluoromethyl)benzoyl]amino]pyridine-2-carboxamide] |
| 13 nM | COc1cc(OC(F)(F)F)ccc1Oc1cc(OC(F)(F)F)cc(C)c1C(=O)Nc1ccnc(C(N)=O)c1 [Compound 242, 4-[[2-[2-methoxy-4-(trifluoromethoxy)phenoxy]-6-methyl-4-(trifluoromethoxy)benzoyl]amino]pyridine-2-carboxamide] |
| 6.8 nM | Cc1c(Oc2ccc(OC(F)(F)F)c(F)c2C(=O)Nc2ccnc(C(N)=O)c2)ccc(OC(F)(F)F)c1F [Compound 294, 4-[[2-Fluoro-6-[3-Fluoro-2-Methyl-4-(Trifluoromethoxy)Phenoxy]-3-(Trifluoromethoxy)Benzoyl]Amino]Pyridine-2-Carboxamide] |
| 34 nM | COc1c(Oc2ccc(OC3CC3)c(F)c2C(=O)Nc2ccnc(C(N)=O)c2)ccc(F)c1F [Compound 374, 4-[[3-(cyclopropoxy)-6-(3,4-difluoro-2-methoxy-phenoxy)-2-fluoro-benzoyl]amino]pyridine-2-carboxamide] |
| 660 nM | CC(C)Oc1ccc(Oc2ccc(C(F)(F)F)cc2C(=O)Nc2ccnc(C(N)=O)c2)cc1F [Compound 7, 4-[[2-(3-fluoro-4-isopropoxy-phenoxy)-5-(trifluoromethyl)benzoyl]amino]pyridine-2-carboxamide] |

| IC50 | Molecule |
| --- | --- |
| 2380 nM | NC(=O)c1cc(NC(=O)c2ccc(C(F)(F)F)cc2Oc2ccc(F)c(Cl)c2)ccn1 [Compound 107, 4-[[2-(3-chloro-4-fluoro-phenoxy)-4-(trifluoromethyl)benzoyl]amino]pyridine-2-carboxamide] |
| 470 nM | [2H]C([2H])([2H])Oc1cc(OC(F)(F)F)ccc1Oc1cc(-c2cccc(C#N)c2)cc(F)c1C(=O)Nc1ccnc(C(N)=O)c1 [Compound 1011, 4-[[4-(3-cyanophenyl)-2-fluoro-6-[2-(trideuteriomethoxy)-4-(trifluoromethoxy)phenoxy]benzoyl]amino]pyridine-2-carboxamide] |
| 180 nM | Cc1c(C(F)(F)F)ccc(Oc2ccc(F)c(F)c2)c1C(=O)Nc1ccnc(C(N)=O)c1 [Compound 126, 4-[[6-(3,4-difluorophenoxy)-2-methyl-3-(trifluoromethyl)benzoyl]amino]pyridine-2-carboxamide] |
| 15 nM | COc1cc(OC(F)(F)F)ccc1Oc1ccc(C2CC2)c(C)c1C(=O)Nc1cc(C(N)=O)ncc1C [Compound 198, 4-[[3-cyclopropyl-6-[2-methoxy-4-(trifluoromethoxy)phenoxy]-2-methyl-benzoyl]amino]-5-methyl-pyridine-2-carboxamide] |
| 2930 nM | NC(=O)c1cc(NC(=O)c2c(Oc3ccc(OC(F)(F)F)cc3O)ccc(C(F)(F)F)c2F)cc[n+]1[O-] [Compound 249, 4-[[2-fluoro-6-[2-hydroxy-4-(trifluoromethoxy)phenoxy]-3-(trifluoromethyl)benzoyl]amino]-1-oxido-pyridin-1-ium-2-carboxamide] |
| 5.2 nM | [2H]C([2H])([2H])Oc1c(Oc2ccc(C(F)F)c(OC)c2C(=O)Nc2ccnc(C(N)=O)c2)ccc(OC(F)(F)F)c1F [Compound 319, 4-[[3-(difluoromethyl)-6-[3-fluoro-2-(trideuteriomethoxy)-4-(trifluoromethoxy)phenoxy]-2-methoxy-benzoyl]amino]pyridine-2-carboxamide] |
| 5.6 nM | COc1c(Oc2cnc(C(F)(F)F)c(C)c2C(=O)Nc2cc(C(N)=O)ncc2C)ccc(OC(F)(F)F)c1F [Compound 336, N-(2-carbamoyl-5-methyl-4-pyridyl)-5-[3-fluoro-2-methoxy-4-(trifluoromethoxy)phenoxy]-3-methyl-2-(trifluoromethyl)pyridine-4-carboxamide] |
| 5.8 nM | CCOc1cc(OC(F)(F)F)ccc1Oc1ccc(C(F)(F)F)c(F)c1C(=O)Nc1ccnc(C(N)=O)c1 [Compound 346, 4-[[6-[2-ethoxy-4-(trifluoromethoxy)phenoxy]-2-fluoro-3-(trifluoromethyl)benzoyl]amino]pyridine-2-carboxamide] |
| 20 nM | Cc1cc(F)ccc1Oc1ccc(C(F)(F)F)c(C)c1C(=O)Nc1ccnc(C(N)=O)c1 [Compound 129, 4-[[6-(4-fluoro-2-methyl-phenoxy)-2-methyl-3-(trifluoromethyl)benzoyl]amino]pyridine-2-carboxamide] |
| > 3000 nM | COc1c(C(F)(F)F)ccc(Oc2ccc(C(F)(F)F)nc2)c1C(=O)Nc1ccnc(C(N)=O)c1 [Compound 70, 4-[[2-methoxy-3-(trifluoromethyl)-6-[[6-(trifluoromethyl)-3-pyridyl]oxy]benzoyl]amino]pyridine-2-carboxamide] |
| 520 nM | COc1c(Oc2ccc(C(F)(F)F)c(C)c2C(=O)Nc2ccc(C(N)=O)nn2)ccc(OC(F)(F)F)c1F [Compound 317, 6-[[6-[3-fluoro-2-methoxy-4-(trifluoromethoxy)phenoxy]-2-methyl-3-(trifluoromethyl)benzoyl]amino]pyridazine-3-carboxamide] |
| 333 nM | COc1cc(OC(F)(F)F)ccc1Oc1cc(OC(F)(F)F)cc(C)c1C(=O)Nc1ccc(C(N)=O)nc1 [Compound 245, 5-[[2-[2-methoxy-4-(trifluoromethoxy)phenoxy]-6-methyl-4-(trifluoromethoxy)benzoyl]amino]pyridine-2-carboxamide] |
| 24 nM | COc1cc(OC(F)(F)F)ccc1Oc1cnc(C(F)(F)F)c(C)c1C(=O)Nc1cc(C(N)=O)ncc1C [Compound 271, N-(2-carbamoyl-5-methyl-4-pyridyl)-5-[2-methoxy-4-(trifluoromethoxy)phenoxy]-3-methyl-2-(trifluoromethyl)pyridine-4-carboxamide] |
| 735 nM | Cc1cc(Cl)ccc1Oc1ccc(C(F)(F)F)c(F)c1C(=O)Nc1ccc(C(N)=O)nc1 [Compound 218, 5-[[6-(4-chloro-2-methyl-phenoxy)-2-fluoro-3-(trifluoromethyl)benzoyl]amino]pyridine-2-carboxamide] |
| 490 nM | COc1c(C(F)(F)F)ccc(Oc2ccc(F)c(C)c2)c1C(=O)Nc1ccnc(C(N)=O)c1 [Compound 61, 4-[[6-(4-fluoro-3-methyl-phenoxy)-2-methoxy-3-(trifluoromethyl)benzoyl]amino]pyridine-2-carboxamide] |

| Molecule | IC50 |
| --- | --- |
| 4-[[2-(4-fluoro-2-methoxy-phenyl)-4-(trifluoromethyl)benzoyl]amino]pyridine-2-carboxamide [Compound 175] | > 3000 nM |
| COc1cc(OC(F)(F)F)ccc1Oc1cc(C(F)(F)F)cc(C)c1C(=O)Nc1ccnc(C(N)=O)c1 [Compound 188, 4-[[2-[2-methoxy-4-(trifluoromethoxy)phenoxy]-6-methyl-4-(trifluoromethyl)benzoyl]amino]pyridine-2-carboxamide] | 24 nM |
